Source: patent publication US10577363B2, “Substituted piperidine compounds” (EPIZYME, INC., priority 2014, dated 2020)

Key:
SMYD3 [1] = biological target: T1, SMYD3 (Homo sapiens (Human), UniProt Q9H7B4); experiment: SMYD3 biochemical assay (SPA, 3H-SAM methylation of MEKK2 protein substrate); settings: Table 2A; read-out: SMYD3 Biochem IC50
In short: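 SPA methyltransferase format: tag-cleaved human SMYD3, insect-cell GST-MEKK2 protein substrate, 3H-SAM donor, 30 min RT enzyme–compound preincubation, 100 uM cold SAM quench.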

SMYD3 [2] = biological target: T1, SMYD3; experiment: SMYD3 cell assay (Trimethyl-MEKK2 In-Cell Western in 293T/17 cells); format: cell-based; settings: Table 2A; read-out: SMYD3 Cell IC50
In short: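 In-Cell Western readout: methanol-fixed cells stained for trimethyl-MEKK2 and flag tag, ratio per well normalized to DMSO and background controls.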

T1 sequence (Q9H7B4 whole entry): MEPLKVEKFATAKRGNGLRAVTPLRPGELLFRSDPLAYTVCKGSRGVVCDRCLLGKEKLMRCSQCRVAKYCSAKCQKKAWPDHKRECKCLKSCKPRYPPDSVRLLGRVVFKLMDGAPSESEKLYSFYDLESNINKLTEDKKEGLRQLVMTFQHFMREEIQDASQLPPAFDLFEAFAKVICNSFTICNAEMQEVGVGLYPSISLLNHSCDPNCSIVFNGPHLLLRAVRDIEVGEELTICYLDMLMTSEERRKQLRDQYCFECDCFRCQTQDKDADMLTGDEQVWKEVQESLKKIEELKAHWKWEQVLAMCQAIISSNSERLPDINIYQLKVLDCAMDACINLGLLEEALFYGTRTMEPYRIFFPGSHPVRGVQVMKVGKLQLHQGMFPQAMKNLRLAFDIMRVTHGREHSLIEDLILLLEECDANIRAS

Structure (SMILES): CN(CCN)CCCS(=O)(=O)N1[C@@H]2CC[C@H]1C[C@@H](NC(=O)c1cc(C3CC3)on1)C2 [compound 586, N-((1R,3r,5S)-8-((3-((2-aminoethyl)(methyl)amino)propyl)sulfonyl)-8-azabicyclo[3.2.1]octan-3-yl)-5-cyclopropylisoxazole-3-carboxamide]
- IC50 (SMYD3 [1]): 10.7 nM
- IC50 (SMYD3 [2]): 263 nM

Structure (SMILES): C[C@H]1C[C@@H](NC(=O)c2cc(C3CC3)on2)CCN1S(=O)(=O)CC1CCN(CCN2CCOCC2)CC1 [compound 587, 5-cyclopropyl-N-((2S,4S)-2-methyl-1-(((1-(2-morpholinoethyl)piperidin-4-yl)methyl)sulfonyl)piperidin-4-yl)isoxazole-3-carboxamide]
- IC50 (SMYD3 [1]): 10.7 nM
- IC50 (SMYD3 [2]): 311 nM

Structure (SMILES): C[C@H]1C[C@@H](NC(=O)c2cc(C3CC3)on2)CCN1S(=O)(=O)N1CC2CC(C1)N2 [compound 588, N-((2S,4S)-1-((3,6-diazabicyclo[3.1.1]heptan-3-yl)sulfonyl)-2-methylpiperidin-4-yl)-5-cyclopropylisoxazole-3-carboxamide]
- IC50 (SMYD3 [1]): 10.8 nM
- IC50 (SMYD3 [2]): 151 nM

Structure (SMILES): C[C@@H]1C[C@H](NC(=O)c2cc(C3CC3)on2)CCN1S(=O)(=O)CC1CCN(CCO)CC1 [compound 589, 5-cyclopropyl-N-((2R,4R)-1-(((1-(2-hydroxyethyl)piperidin-4-yl)methyl)sulfonyl)-2-methylpiperidin-4-yl)isoxazole-3-carboxamide]
- IC50 (SMYD3 [1]): 10.9 nM
- IC50 (SMYD3 [2]): 152 nM

Structure (SMILES): CN(C)CCNCCCS(=O)(=O)N1[C@@H]2CC[C@H]1C[C@@H](NC(=O)c1cc(C3CC3)on1)C2 [compound 590, 5-cyclopropyl-N-((1R,3r,5S)-8-((3-((2-(dimethylamino)ethyl)amino)propyl)sulfonyl)-8-azabicyclo[3.2.1]octan-3-yl)isoxazole-3-carboxamide]
- IC50 (SMYD3 [1]): 10.9 nM
- IC50 (SMYD3 [2]): 175 nM

Structure (SMILES): CNCCCS(=O)(=O)N1[C@@H]2CC[C@H]1C[C@@H](NC(=O)c1cc(C3CC3)on1)C2 [compound 591, 5-cyclopropyl-N-((1R,3r,5S)-8-((3-(methylamino)propyl)sulfonyl)-8-azabicyclo[3.2.1]octan-3-yl)isoxazole-3-carboxamide]
- IC50 (SMYD3 [1]): 11.1 nM
- IC50 (SMYD3 [2]): 150 nM

Structure (SMILES): C[C@H]1C[C@@H](NC(=O)c2cc(C3CC3)on2)CCN1S(=O)(=O)N1C[C@@H]2C[C@H]1CN2C [compound 592, 5-cyclopropyl-N-((2S,4S)-2-methyl-1-(((1S,4S)-5-methyl-2,5-diazabicyclo[2.2.1]heptan-2-yl)sulfonyl)piperidin-4-yl)isoxazole-3-carboxamide]
- IC50 (SMYD3 [1]): 11.6 nM
- IC50 (SMYD3 [2]): 106 nM

Structure (SMILES): CN(C)CCCS(=O)(=O)N1[C@@H]2CC[C@H]1C[C@@H](NC(=O)c1cc(C3CC3)on1)C2 [compound 593, 5-cyclopropyl-N-((1R,3r,5S)-8-((3-(dimethylamino)propyl)sulfonyl)-8-azabicyclo[3.2.1]octan-3-yl)isoxazole-3-carboxamide]
- IC50 (SMYD3 [1]): 11.8 nM
- IC50 (SMYD3 [2]): 147 nM

Structure (SMILES): O=C(N[C@H]1C[C@H]2CC[C@@H](C1)N2S(=O)(=O)NC1CC2(CNC2)C1)c1cc(C2CC2)on1 [compound 594, N-((1R,3r,5S)-8-(N-(2-azaspiro[3.3]heptan-6-yl)sulfamoyl)-8-azabicyclo[3.2.1]octan-3-yl)-5-cyclopropylisoxazole-3-carboxamide]
- IC50 (SMYD3 [1]): 12 nM
- IC50 (SMYD3 [2]): 669 nM

Structure (SMILES): C[C@@H]1CN(S(=O)(=O)N2CCNCC2)[C@H](C)C[C@@H]1NC(=O)c1cc(C2CC2)on1 [compound 595, 5-cyclopropyl-N-((2R,4S,5R)-2,5-dimethyl-1-(piperazin-1-ylsulfonyl)piperidin-4-yl)isoxazole-3-carboxamide]
- IC50 (SMYD3 [1]): 12.6 nM
- IC50 (SMYD3 [2]): 77.8 nM

Structure (SMILES): NCCNCCS(=O)(=O)N1[C@@H]2CC[C@H]1C[C@@H](NC(=O)c1cc(C3CC3)on1)C2 [compound 596, N-((1R,3r,5S)-8-((2-((2-aminoethyl)amino)ethyl)sulfonyl)-8-azabicyclo[3.2.1]octan-3-yl)-5-cyclopropylisoxazole-3-carboxamide]
- IC50 (SMYD3 [1]): 12.8 nM
- IC50 (SMYD3 [2]): 379 nM
